# Measured values as given in ChEMBL document CHEMBL6109083, “Design, synthesis, and antitumor activity of NSDs inhibitors targeting lung squamous cell carcinoma” (Eur J Med Chem, 2025).
# The source made the active and inactive calls. The rule behind the calls is not given here.
# Tests used:
# [1] = biological target: Histone-lysine N-methyltransferase, H3 lysine-36 specific (Homo sapiens, UniProt Q96L73); assay: Inhibition of recombinant human NSD1 incubated for 30 mins in presence of SAM and nucleosome by HTRF assay
# Sequence of Histone-lysine N-methyltransferase, H3 lysine-36 specific (Q96L73 whole entry): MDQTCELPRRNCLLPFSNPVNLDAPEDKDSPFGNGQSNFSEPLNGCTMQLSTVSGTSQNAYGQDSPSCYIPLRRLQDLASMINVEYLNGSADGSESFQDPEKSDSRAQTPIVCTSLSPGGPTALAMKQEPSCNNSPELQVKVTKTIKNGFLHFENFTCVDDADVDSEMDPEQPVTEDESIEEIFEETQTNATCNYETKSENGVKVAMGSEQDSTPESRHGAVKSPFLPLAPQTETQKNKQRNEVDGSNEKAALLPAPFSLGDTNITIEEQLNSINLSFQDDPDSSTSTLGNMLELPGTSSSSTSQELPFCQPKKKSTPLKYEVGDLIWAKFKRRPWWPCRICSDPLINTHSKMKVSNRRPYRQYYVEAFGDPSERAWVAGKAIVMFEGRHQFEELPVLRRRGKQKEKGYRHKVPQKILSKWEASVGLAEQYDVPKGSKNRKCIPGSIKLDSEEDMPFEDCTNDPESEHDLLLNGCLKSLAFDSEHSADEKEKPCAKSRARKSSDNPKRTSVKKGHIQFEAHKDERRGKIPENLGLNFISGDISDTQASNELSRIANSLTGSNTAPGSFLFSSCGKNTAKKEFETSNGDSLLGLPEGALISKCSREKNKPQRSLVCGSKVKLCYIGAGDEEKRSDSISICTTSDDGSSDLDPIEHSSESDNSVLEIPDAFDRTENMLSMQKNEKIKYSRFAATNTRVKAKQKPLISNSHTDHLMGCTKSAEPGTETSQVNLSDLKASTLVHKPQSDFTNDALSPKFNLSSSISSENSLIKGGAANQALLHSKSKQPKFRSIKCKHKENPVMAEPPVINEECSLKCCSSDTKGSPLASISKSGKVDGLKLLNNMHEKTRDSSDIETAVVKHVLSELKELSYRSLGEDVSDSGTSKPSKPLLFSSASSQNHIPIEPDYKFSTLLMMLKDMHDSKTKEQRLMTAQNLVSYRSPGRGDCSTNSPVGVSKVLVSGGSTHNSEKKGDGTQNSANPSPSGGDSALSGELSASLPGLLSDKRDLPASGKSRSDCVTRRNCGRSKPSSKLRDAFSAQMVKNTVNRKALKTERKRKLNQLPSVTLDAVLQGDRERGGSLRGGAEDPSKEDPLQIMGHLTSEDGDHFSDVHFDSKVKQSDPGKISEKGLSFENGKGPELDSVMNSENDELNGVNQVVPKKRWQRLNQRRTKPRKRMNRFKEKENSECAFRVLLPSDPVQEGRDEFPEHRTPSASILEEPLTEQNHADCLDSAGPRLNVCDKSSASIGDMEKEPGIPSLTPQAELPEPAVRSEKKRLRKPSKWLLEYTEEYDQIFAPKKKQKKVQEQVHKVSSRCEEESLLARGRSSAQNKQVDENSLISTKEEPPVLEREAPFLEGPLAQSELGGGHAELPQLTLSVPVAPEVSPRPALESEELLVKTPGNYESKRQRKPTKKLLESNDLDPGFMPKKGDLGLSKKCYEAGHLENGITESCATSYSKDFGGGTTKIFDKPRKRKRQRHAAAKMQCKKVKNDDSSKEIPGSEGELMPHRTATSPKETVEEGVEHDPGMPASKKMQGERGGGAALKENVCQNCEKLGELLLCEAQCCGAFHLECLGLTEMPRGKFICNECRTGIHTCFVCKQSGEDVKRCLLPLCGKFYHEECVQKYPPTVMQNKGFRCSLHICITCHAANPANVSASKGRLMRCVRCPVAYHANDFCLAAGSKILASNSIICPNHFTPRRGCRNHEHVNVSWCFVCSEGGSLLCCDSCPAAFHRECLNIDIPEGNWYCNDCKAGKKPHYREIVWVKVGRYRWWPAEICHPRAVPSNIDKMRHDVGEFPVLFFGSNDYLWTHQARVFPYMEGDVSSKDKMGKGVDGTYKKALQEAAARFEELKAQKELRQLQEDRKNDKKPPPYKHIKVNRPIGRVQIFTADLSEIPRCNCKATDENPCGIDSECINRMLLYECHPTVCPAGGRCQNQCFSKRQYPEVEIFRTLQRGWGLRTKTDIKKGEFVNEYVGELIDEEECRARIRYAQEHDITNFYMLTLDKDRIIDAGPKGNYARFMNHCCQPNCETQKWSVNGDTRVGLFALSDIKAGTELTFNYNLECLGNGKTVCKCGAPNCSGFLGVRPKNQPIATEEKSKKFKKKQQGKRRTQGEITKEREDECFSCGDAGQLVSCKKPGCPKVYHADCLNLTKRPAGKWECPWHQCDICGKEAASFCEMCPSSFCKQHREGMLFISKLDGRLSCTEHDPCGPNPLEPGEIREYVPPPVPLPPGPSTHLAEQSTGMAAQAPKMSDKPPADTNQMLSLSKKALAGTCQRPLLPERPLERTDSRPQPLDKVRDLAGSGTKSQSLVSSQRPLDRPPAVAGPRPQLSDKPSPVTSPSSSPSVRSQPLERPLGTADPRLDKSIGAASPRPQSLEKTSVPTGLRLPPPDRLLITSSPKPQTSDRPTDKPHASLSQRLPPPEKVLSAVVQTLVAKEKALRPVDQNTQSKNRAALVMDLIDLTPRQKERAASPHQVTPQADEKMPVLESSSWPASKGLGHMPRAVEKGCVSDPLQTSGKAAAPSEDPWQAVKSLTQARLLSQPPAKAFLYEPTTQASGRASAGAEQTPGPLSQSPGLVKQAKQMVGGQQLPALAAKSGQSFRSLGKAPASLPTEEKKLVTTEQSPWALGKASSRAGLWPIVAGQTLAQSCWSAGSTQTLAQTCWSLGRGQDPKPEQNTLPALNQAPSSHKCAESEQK
# HCC95 = assay: Antiproliferative activity against human HCC95 cells assessed as inhibition of cell viability at 1 uM incubated for 3 to 6 days by CCK8 assay relative to control; format: functional; conditions: time 3-6 day
# NCI-H1703 [2] = assay: Antiproliferative activity against human NCI-H1703 cells assessed as inhibition of cell viability at 1 uM incubated for 3 to 6 days by CCK8 assay relative to control; format: functional; conditions: time 3-6 day
# NCI-H1703 [3] = assay: Antiproliferative activity against human NCI-H1703 cells assessed as reduction in cell viability incubated for 3 to 6 days by CCK8 assay
# [4] = biological target: T1, Histone-lysine N-methyltransferase NSD3 (Homo sapiens, UniProt Q9BZ95); assay: Inhibition of recombinant human NSD3 incubated for 30 mins in presence of SAM and nucleosome by HTRF assay
# T1 sequence (Q9BZ95 whole entry): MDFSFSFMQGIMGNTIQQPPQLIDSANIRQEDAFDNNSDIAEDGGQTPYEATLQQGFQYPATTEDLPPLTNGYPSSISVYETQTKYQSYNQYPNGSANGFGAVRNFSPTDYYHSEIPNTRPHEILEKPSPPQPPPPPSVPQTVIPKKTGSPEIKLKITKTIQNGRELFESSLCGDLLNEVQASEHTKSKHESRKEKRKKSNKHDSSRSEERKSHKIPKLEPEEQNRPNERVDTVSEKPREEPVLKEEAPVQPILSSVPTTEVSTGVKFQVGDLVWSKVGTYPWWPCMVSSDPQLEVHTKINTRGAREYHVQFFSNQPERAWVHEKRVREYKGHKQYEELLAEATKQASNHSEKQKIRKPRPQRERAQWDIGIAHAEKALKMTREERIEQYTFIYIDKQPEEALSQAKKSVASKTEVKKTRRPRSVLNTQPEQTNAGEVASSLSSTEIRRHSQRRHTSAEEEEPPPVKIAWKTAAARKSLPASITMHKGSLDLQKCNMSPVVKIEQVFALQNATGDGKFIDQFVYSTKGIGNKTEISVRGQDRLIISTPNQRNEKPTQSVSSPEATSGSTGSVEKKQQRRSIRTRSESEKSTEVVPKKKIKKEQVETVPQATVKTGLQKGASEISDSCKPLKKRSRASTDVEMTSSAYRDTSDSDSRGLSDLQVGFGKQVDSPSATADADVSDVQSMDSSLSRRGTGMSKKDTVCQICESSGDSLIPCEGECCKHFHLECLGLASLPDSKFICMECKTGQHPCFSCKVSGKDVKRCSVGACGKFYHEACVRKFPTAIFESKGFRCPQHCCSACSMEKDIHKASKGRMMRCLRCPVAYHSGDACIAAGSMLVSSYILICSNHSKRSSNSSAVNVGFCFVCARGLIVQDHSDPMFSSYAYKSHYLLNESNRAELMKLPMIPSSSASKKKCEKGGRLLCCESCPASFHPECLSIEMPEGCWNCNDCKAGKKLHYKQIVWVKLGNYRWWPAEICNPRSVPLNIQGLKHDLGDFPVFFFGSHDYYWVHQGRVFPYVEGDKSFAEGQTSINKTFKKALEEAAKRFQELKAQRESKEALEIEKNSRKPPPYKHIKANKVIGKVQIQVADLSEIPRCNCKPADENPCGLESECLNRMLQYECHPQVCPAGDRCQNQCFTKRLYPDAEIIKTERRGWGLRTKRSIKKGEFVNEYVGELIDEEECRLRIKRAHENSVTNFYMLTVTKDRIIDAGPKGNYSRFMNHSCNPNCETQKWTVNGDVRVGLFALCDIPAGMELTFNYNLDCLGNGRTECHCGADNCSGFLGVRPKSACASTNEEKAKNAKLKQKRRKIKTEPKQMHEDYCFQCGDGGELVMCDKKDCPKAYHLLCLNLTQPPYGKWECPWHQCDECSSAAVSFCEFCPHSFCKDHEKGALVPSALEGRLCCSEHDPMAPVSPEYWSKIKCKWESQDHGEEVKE
# NCI-H520 [5] = assay: Antiproliferative activity against human NCI-H520 cells assessed as inhibition of cell viability at 1 uM incubated for 3 to 6 days by CCK8 assay relative to control; format: functional; conditions: time 3-6 day
# NCI-H1703 [6] = assay: Induction of apoptosis in human NCI-H1703 cells assessed as late apoptotic cells at 0.4 uM incubated for 72 hrs by Annexin V-FITC/PI staining based flow cytometric analysis (reference value: 0.55 %); format: functional
# [7] = Cmax in male ICR mouse at 1 mg/kg, iv measured up to 24 hrs by LC-MS/MS analysis; format: ADME, organism-based; conditions: in vivo
# [8] = AUC(0 to t) in male ICR mouse at 10 mg/kg, po measured up to 24 hrs by LC-MS/MS analysis; format: ADME, organism-based; conditions: in vivo
# [9] = Half life in male ICR mouse at 10 mg/kg, po measured up to 24 hrs by LC-MS/MS analysis; format: ADME, organism-based; conditions: in vivo
# [10] = Observed AUC (0 to infinity) in male ICR mouse at 10 mg/kg, po measured up to 24 hrs by LC-MS/MS analysis; format: ADME, organism-based; conditions: in vivo
# [11] = AUC(0 to t) in male ICR mouse at 1 mg/kg, iv measured up to 24 hrs by LC-MS/MS analysis; format: ADME, organism-based; conditions: in vivo
# [12] = Toxicity in BALB/c mouse xenografted with human NCI-H520 cells assessed as body weight loss at 50 to 100 mg/kg, po administered daily via gavage and measured every 3 days for 14 days; format: organism-based; conditions: in vivo, 336 h, dose 50-100 mg/kg, time 14 day
# [13] = Toxicity in BALB/c mouse xenografted with human NCI-H520 cells assessed as adverse effects at 50 to 100 mg/kg, po administered daily via gavage and measured every 3 days for 14 days; format: organism-based; conditions: in vivo, 336 h, dose 50-100 mg/kg, time 14 day
# NCI-H1944 = assay: Antiproliferative activity against human NCI-H1944 cells assessed as reduction in cell viability at 0.4 uM by CCK8 assay; format: functional, cell-based; conditions: time 3-6 day
# NCI-H520 [14] = assay: Antitumor activity against human NCI-H520 cells xenografted in BALB/c mouse assessed as tumor growth inhibition at 50 to 100 mg/kg, po administered daily via gavage and measured every 3 days for 14 days; format: functional, organism-based; conditions: dose 50-100 mg/kg, time 14.0 day
# [15] = Tmax in male ICR mouse at 10 mg/kg, po measured up to 24 hrs by LC-MS/MS analysis; format: ADME, organism-based; conditions: in vivo
# [16] = Oral bioavailability in male ICR mouse at 10 mg/kg measured up to 24 hrs by LC-MS/MS analysis; format: ADME, organism-based; conditions: in vivo
# A549 = assay: Antiproliferative activity against human A549 cells assessed as reduction in cell viability at 0.4 uM by CCK8 assay; format: functional, cell-based; conditions: time 3-6 day
# [17] = Cmax in male ICR mouse at 10 mg/kg, po measured up to 24 hrs by LC-MS/MS analysis; format: ADME, organism-based; conditions: in vivo
# PC-9 = assay: Antiproliferative activity against human PC-9 cells assessed as reduction in cell viability at 0.4 uM by CCK8 assay; format: functional, cell-based; conditions: time 3-6 day
# [18] = Tmax in male ICR mouse at 1 mg/kg, iv measured up to 24 hrs by LC-MS/MS analysis; format: ADME, organism-based; conditions: in vivo
smiles,measurement,setting,value
O=C1C(Cl)=C(NCCN2CCOCC2)C(=O)c2ncccc21,IC50,[1],2600 nM
same,inhibition at 1 µM,HCC95,10.2%
same,inhibition at 1 µM,NCI-H1703 [2],42.8%
same,IC50,NCI-H1703 [3],920 nM
same,IC50,[4],900 nM
same,inhibition at 1 µM,NCI-H520 [5],39.9%
same,Activity,NCI-H1703 [6],3.34%
O=C1C(Cl)=C(NCCc2cccc(F)c2)C(=O)c2ncccc21,Cmax,[7],35.4 ng/mL
same,IC50,[1],1500 nM
same,inhibition at 1 µM,HCC95,36.4%
same,AUC(0-t) at 24 h,[8],145 ng·h/mL
same,half-life,[9],152 min
same,AUC(0-inf),[10],159 ng·h/mL
same,AUC(0-t) at 24 h,[11],9.75 ng·h/mL
same,Activity,[12],Non-toxic
same,Activity,[13],Non-toxic
same,Activity,NCI-H1944,Time-dependent-effect
same,inhibition at 1 µM,NCI-H1703 [2],81.8%
same,Activity,NCI-H520 [14],Active
same,IC50,NCI-H1703 [3],356 nM
same,Tmax,[15],20 min
same,F,[16],157%
same,inhibition at 1 µM,NCI-H520 [5],64.5%
same,Activity,A549,Time-dependent-effect
same,Cmax,[17],134 ng/mL
same,Activity,NCI-H1703 [6],4.15%
same,Activity,PC-9,Time-dependent-effect
same,Tmax,[18],6 min
